Data: PMC11994314, “Binding mode between peptidyl-tRNA hydrolase and the peptidyl-A76 moiety of the substrate” (The Journal of Biological Chemistry, 2025)

B1: C-terminal 16-amino acid deletion mutant of Thermus thermophilus HB8 peptidyl-tRNA hydrolase (ΔC16 TtPth) (domain or fragment, UniProt Q5SHZ2 1-167, looked up)
chain: MFLVVGQGNPGERYARTRHNLGFMVLDRLGLSFRPRGEALVAEAEGGLFLKPLTYYNLTGRAVAPLARFYKIPPERILVVHDEMDLPLGRIRFKAGGSAAGNRGVLSIEEALGTRAFHRLRLGIGKPPDPSRGAEYVLSPFREEELPVVERVLEAAKEAVWCWVREG
notes: Peptidyl-tRNA hydrolase (Pth, Pth1 type) of Thermus thermophilus HB8, lacking the C-terminal 16 amino acid residues (the C-terminal α-helix); the construct ends with Arg165-Glu166-Gly167; The His-tag was removed with thrombin; also called TtPth⋅tripeptide; C-terminal α-helix (C-terminal 16 amino acid residues) deletion mutant; source: E. coli BL21(DE3), purified (Ni-chelating column, thrombin …)

Experiments:
[1] = target: T1, TtPth (Thermus thermophilus peptidyl-tRNA hydrolase) (Thermus thermophilus, UniProt Q5SHZ2); test: X-ray crystal structure (co-crystallisation), […] Å; type: binding; settings: 40 mM AMP in reservoir, MES pH 5.8, 20 °C; active site cleft, acidic pocket, A76 mimic
T1 construct: gene pth; wild type, full length (183 residues inferred from deletion of C-terminal 16 leaving Gly167 as last residue); monomer; wild type for crystals expressed and purified as described previously

[2] = target: the molecule itself; test: crystal structure; crystals of ΔC16 TtPth (13 mg/ml, with 20 mM 3′-(N-acetyl-L-alanyl)amino-3′-deoxyadenosine, which was not seen in the density); 0.5 M (NH4)2SO4, 0.1 M Tris-HCl pH 7.5, 30% PEG600, 10% glycerol, 20 °C; contact between crystallographically related molecules, 2.10 Å

T1 sequence (Q5SHZ2 whole entry): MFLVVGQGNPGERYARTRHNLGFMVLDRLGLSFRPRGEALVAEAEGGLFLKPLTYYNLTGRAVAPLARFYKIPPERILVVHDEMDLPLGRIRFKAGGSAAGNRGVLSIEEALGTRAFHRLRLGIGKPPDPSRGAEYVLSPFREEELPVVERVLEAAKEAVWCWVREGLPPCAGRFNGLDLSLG

Row | Molecule | X-ray crystal structure (co-crystallisation), 1.60 Å [1] | binding result [2]
1 | Nc1ncnc2c1ncn2[C@@H]1O[C@H](COP(=O)(O)O)[C@@H](O)[C@H]1O [adenosine 5′-monophosphate] | The structure of TtPth⋅AMP revealed that AMP is bound to an acidic pocket | 
2 | B1 |  | binds
